We go through one compound from ChEMBL document CHEMBL6071133, “Discovery of novel penetrating peptides able to target human leukemia and lymphoma for enhanced PROTAC delivery” (Eur J Med Chem, 2024).

The nature of series [1]: Drug uptake in human THP-1 cells assessed as increase in fluorescence intensity at 10 umol/L incubated for 2 hrs by cell imaging based fluorescence microscopic analysis. It is filed as ADME. The conditions noted are these: thp-1, 2 h, 10 µM, dose 10 µmol/L.
The test system of series [2] is K562. As to the kind of experiment: Increase in membrane permeability of IMA-PROTAC in human K562 cells assessed as potentiation of IMA-PROTAC-induced Bcr-Abl degradation at PROTAC to compound concentration ratio of 1:3 incubated for 48 hrs in presence of 3 umol/L IMA-PROTAC by western blot analysis. The format is functional, cell-based. For orientation: A western blot detects proteins with antibodies after separation by electrophoresis.

Series [3] is described as follows: Cytotoxicity against human CCRF-CEM cells assessed as cell viability at 0.01 to 100 uM incubated for 48 hrs by MTT assay. It is filed as toxicity, cell-based. As to conditions: dose 0.01-100 µM, read-out: Activity.
Series [4] can be described thus: Drug uptake in human CCRF-CEM cells assessed as perinuclear distribution and colocalization with nucleus at 10 umol/L incubated for 2 hrs by confocal laser microscopy. The format is ADME, cell-based. As to conditions: 10 µM, dose 10 µmol/L.
The subject of series [5] is K562. As to the kind of experiment: Induction of cell cycle arrest in human K562 cells assessed as accumulation of cells at G2/M phase at PROTAC to compound concentration ratio of 1:5 incubated for 48 hrs in presence of 3 umol/L IMA-PROTAC by propidium iodide staining based flow cytometry. It is filed as functional.
Series [6] deals with K562. As to the kind of experiment: Increase in membrane permeability of IMA-PROTAC in human K562 cells assessed as potentiation of IMA-PROTAC-induced inhibition of STAT5 phosphorylation at PROTAC to compound concentration ratio of 1:3 incubated for 48 hrs in presence of 3 umol/L IMA-PROTAC by western blot analysis. The format is functional, cell-based.
Series [7] is described as follows: Cytotoxicity against human THP-1 cells assessed as cell viability at higher concentrations incubated for 48 hrs by MTT assay. The format is toxicity, cell-based. The conditions noted are these: read-out: Activity. Background: Tetrazolium assays rely on reduction of a dye to a coloured formazan, in cell work by metabolically active cells.
Series [8] is described as follows: Cytotoxicity against human K562 cells assessed as cell viability at 0.01 to 100 uM incubated for 48 hrs by MTT assay. The format is toxicity, cell-based. The conditions noted are these: dose 0.01-100 µM, read-out: Activity.
Series [9] is described as follows: Drug uptake in human CCRF-CEM cells assessed as increase in fluorescence intensity at 1 to 10 uM incubated for 2 hrs by flow cytometry. The format is ADME, cell-based. The conditions noted are these: dose 1-10 µM.

Molecules are shown by their SMILES. Activity calls are given as the source filed them. The rule behind the calls is not given here. Bounds are passed on as bounds.

With `CC(C)C[C@H](NC(=O)[C@H](Cc1csc2ccccc12)NC(=O)[C@@H](Cc1ccccc1)NC(=O)[C@H](Cc1ccccc1)NC(=O)CNC(=O)[C@@H](N)CS)C(=O)N[C@@H](CCCNC(=N)N)C(=O)N[C@@H](CO)C(=O)N[C@@H](CS)C(=O)O`, the Drug uptake entry in [1] is “Active”; in series [4], “Active”; in series [9] it was “Dose-Dependent Effect”. Moreover, the result in the series with K562 [2], in the series with K562 [5] and with K562 [6] was Active. For the same compound, the viability at 48 h, up to 100 µM in [3] and in series [8] was greater than 75% in each case. The viability at 48 h in series [7] was greater than 75%.
